According to patent US20230348450A1, “CARBOXYLIC ACID-CONTAINING COMPOUNDS AS MODULATORS OF BIS-PHOSPHOGLYCERATE MUTASE FOR THE TREATMENT OF SICKLE CELL DISEASE” (Genzyme Corporation, priority 2020, published 2023):

Each molecule was assayed against hBPGM (Homo sapiens (Human), UniProt P07738) (assay: BPGM Synthase Assay). Conditions: Table 6 additional results; read-out: huBPGM: synthase Enzyme IC50.
Format: biochemical
Experimental: Example B1. BPGM Synthase Assay
The following materials were used in this assay: deionized water; Bisphosphoglycerate mutase (BPGM; Standard Buffer: 50 mM Tris, 0.01% Tween 20, pH 7.4); BPGM Reaction Buffer (50 mM Tris, 0.01% Tween 20, 3.23 mM KH2PO4, pH 7.4); dithiothreitol (DTT; Stock solution: 100 mM in Standard Buffer); 384-Well Black Assay Plate (Corning, P/N 3575); DMSO; BPGM Stock Solution (500 nM in BPGM Standard Buffer); Glyceraldehyde 3-phosphate dehydrogenase (GAPDH; Stock Solution: 40 U/mL in 20 mM Tris-HCL Buffer with 20% Glycerol, 1 mM EDTA, 1 mM DTT); Glyceraldehyde 3-phosphate (GAP; Stock Solution: 20 mM in BPGM Standard Buffer); 3-PG Stock Solution (500 μM in BPGM Standard Buffer); Nicotinamide adenine dinucleotide (NAD; Stock Solution: 50 mM in BPGM Standard Buffer); Koningic Acid (1 mM Stock in DMSO); Resazurin Stock Solution (10 mM in DMSO); Diaphorase Stock Solution (40 U/mL in BPGM Standard Buffer); DTT Reaction Buffer (1 mM DTT in BPGM Reaction Buffer); Enzyme Solution (5 nM BPGM, 0.4 U/mL GAPDH in DTT Reaction Buffer); GAPDH Solution (0.4 U/mL GAPDH in DTT Reaction Buffer); Substrate Solution (2 mM NAD, 20 μM 3PG, 800 μM GAP in DTT Reaction Buffer); and Resazurin Solution (5 U/mL Diaphorase, 500 μM Resazurin in BPGM Standard Buffer).
To the assay plate was added Enzyme Solution (20 uL) to columns 2-22 and 24 of the assay plate. To columns 1 and 23 was added GAPDH Solution (20 uL). A separate compound plate was prepared at the desired concentrations and all wells were normalized with 5% DMSO. The compound plate was incubated for 30 minutes at RT. Next, the substrate solution (20 μL) was dispensed to all reaction wells and the plate was incubated for 60 minutes at RT. Koningic acid (1 μL) was added and the plate was incubated for 10 minutes at RT. During this time period, the NADH fluorescence was read at ex: 360/em: 460. Next, Resazurin Solution (10 μL) was added to all reaction wells and the plate was incubated for 30 minutes at RT. The resorufin fluorescence was then read at ex:544/em:590.

hBPGM, sequence (P07738 whole entry, looked up): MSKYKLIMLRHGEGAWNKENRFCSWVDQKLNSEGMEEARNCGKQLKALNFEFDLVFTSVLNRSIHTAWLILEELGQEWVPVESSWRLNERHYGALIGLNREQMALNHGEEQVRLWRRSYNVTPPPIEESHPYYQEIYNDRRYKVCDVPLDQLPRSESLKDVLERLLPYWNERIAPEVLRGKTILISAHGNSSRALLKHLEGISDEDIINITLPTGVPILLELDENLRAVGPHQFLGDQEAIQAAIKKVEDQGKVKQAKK

SMILES | IC50
Cc1nc(COc2ccc(F)cn2)sc1-c1ccn(-c2ccc(C(=O)O)c(C(F)F)c2)n1 [Example 17] | 890 nM
Cc1nc(COc2ccc(F)cn2)sc1-c1ccn(-c2ccc(C(=O)O)cc2)n1 [Example 18] | 650 nM
Cc1nc(COc2ccc(F)cn2)sc1-c1cnn(-c2ccc(C(=O)O)cc2)n1 [Example 19] | 850 nM
Cc1nc(COc2ccc(F)cn2)sc1-c1cnn(-c2ccc(C(=O)O)c(O)c2)c1 [Example 20] | 2100 nM
Cc1nc(COc2ccc(F)cn2)sc1-c1ccn(-c2ccc(C(=O)O)c(O)c2)n1 [Example 21] | 290 nM
Cc1nc(COc2ccc(F)cn2)sc1-c1cccc(-c2ccc(C(=O)O)c(C(F)F)c2)n1 [Example 22] | 290 nM
Cc1nc(COc2ncccn2)sc1-c1ccnc(-c2ccc(C(=O)O)cc2)c1 [Example 23] | 17000 nM
O=C(O)c1ccc(-c2cccc(N3CCC(COc4ncccn4)CC3)n2)cc1 [Example 24] | > 25000 nM
CN(C)C(=O)OCC1CCN(c2cccc(-c3ccc(C(=O)O)cc3)n2)CC1 [Example 25] | > 25000 nM
Cc1nc(COc2ccc(F)cn2)sc1-c1cccc(-c2ccc(C(=O)O)c(O)c2)n1 [Example 26] | 430 nM
Cc1nc(COc2ncccn2)sc1-c1cccc(-c2cc(C(=O)O)nn2C)n1 [Example 27] | 7400 nM
Cc1nc(COc2ncccn2)sc1-c1cccc(-c2ccc(C(=O)O)cc2C(C)C)n1 [Example 28] | > 25000 nM
Cc1nc(COc2ccc(F)cn2)sc1-c1cccc(-c2ccc(C(=O)O)c(C(F)F)c2)c1 [Example 29] | 1800 nM
Cc1nc(COc2ncccn2)sc1-c1cccc(-c2cc(C(=O)O)nn2C(C)C)n1 [Example 30] | 15000 nM
Cc1cc(C(=O)O)cc(C)c1-c1cccc(-c2sc(COc3ncccn3)nc2C)n1 [Example 31] | > 25000 nM
Cc1nc(COc2ncccn2)sc1-c1cccc(-c2ccc(C(=O)O)o2)n1 [Example 33] | 11000 nM
Cc1nc(COc2ncccn2)sc1-c1nc(-c2ccc(C(=O)O)cc2)cs1 [Example 34] | 340 nM
Cc1nc(COc2ncccn2)sc1-c1cccc(-c2ccc(C(=O)NC(CC(=O)O)c3ccccc3)cc2)n1 (stereo not drawn) [Example 35] | 2600 nM
Cc1nc(COc2ncccn2)sc1-c1cccc(-c2ccc(C(=O)N[C@@H](C(=O)O)c3ccccc3)cc2)n1 [Example 36] | 2700 nM
O=C(O)c1ccc(-c2nc(-c3ccnc(COc4ncccn4)c3)cs2)cc1 [Example 37] | 7600 nM
O=C(O)c1ccc(-c2nc(-c3ccnc(CO)c3)cs2)cc1 [Example 38] | > 25000 nM
Cc1nc(COc2ncccn2)sc1-c1cccc(-c2cc(C(=O)O)co2)n1 [Example 39] | 18000 nM
Cc1nc(OCC2CCCCO2)sc1-c1cccc(-c2ccc(C(=O)O)cc2)n1 (stereo not drawn) [Example 41] | 19000 nM

SMILES | IC50
Cc1nc(CNCC(C)(C)C)sc1-c1cccc(-c2ccc(C(=O)O)cc2)c1 [Example 42] | > 25000 nM
Cc1nc(COc2ncc(C(F)(F)F)cn2)sc1-c1cccc(-c2ccc(C(=O)O)cc2)n1 [Example 43] | 23000 nM
Cc1nc(COC2CCOC2)sc1-c1cccc(-c2ccc(C(=O)O)cc2)c1 (stereo not drawn) [Example 44] | 1900 nM
Cc1nc(COCC2CCCCO2)sc1-c1cccc(-c2ccc(C(=O)O)cc2)c1 (stereo not drawn) [Example 45] | 1400 nM
Cc1nc(COCC2CCCO2)sc1-c1cccc(-c2ccc(C(=O)O)cc2)c1 (stereo not drawn) [Example 46] | 1200 nM
Cc1nc(CO[C@@H]2CCCOC2)sc1-c1cccc(-c2ccc(C(=O)O)cc2)c1 [Example 47] | 980 nM
Cc1nc(COc2ccc(C(F)(F)F)nn2)sc1-c1cccc(-c2ccc(C(=O)O)cc2)n1 [Example 48] | 1900 nM
Cc1nc(COc2ncccn2)sc1-c1cccc(-c2ccc(C(=O)O)c(C(F)F)c2)n1 [Example 54] | 180 nM
Cc1nc(COC2CCCCO2)sc1-c1cccc(-c2ccc(C(=O)O)cc2)n1 (stereo not drawn) [Example 55] | 380 nM
Cc1nc(COc2ccc(C(F)(F)F)cn2)sc1-c1cccc(-c2ccc(C(=O)O)cc2)n1 [Example 56] | 3300 nM
Cc1nc(COc2ccccn2)sc1-c1cccc(-c2ccc(C(=O)O)cc2)n1 [Example 57] | > 25000 nM
Cc1nc(COc2ccccn2)sc1-c1cccc(-c2ccc(C(=O)O)nc2)c1 [Example 58] | > 25000 nM
Cc1nc(COc2cnn(C(C)(C)C)c2)sc1-c1cccc(-c2ccc(C(=O)O)cc2)n1 [Example 59] | 970 nM
Cc1nc(Cn2cc(C(F)(F)F)cn2)sc1-c1cccc(-c2ccc(C(=O)O)cc2)n1 [Example 60] | 760 nM
Cc1nc(COc2ccc(C(F)(F)F)nc2)sc1-c1cccc(-c2ccc(C(=O)O)cc2)n1 [Example 61] | 1300 nM
Cc1nc(CNC(=O)C(C)(C)C)sc1-c1cccc(-c2ccc(C(=O)O)cc2)n1 [Example 62] | 1800 nM
Cc1nc(COC(=O)N(C)C)sc1-c1cccc(-c2ccc(C(=O)O)cc2)n1 [Example 64] | 910 nM
Cc1nc(COc2ccccn2)sc1-c1cccc(-c2ccc(C(=O)O)cn2)c1 [Example 69] | 5500 nM
Cc1nc(COc2ncccn2)sc1-c1cccc(-c2ccc(C(=O)O)c(C(=O)O)c2)n1 [Example 70] | 11000 nM
Cc1nc(CO)sc1-c1cccc(-c2c[nH]c(C(=O)O)c2)n1 [Example 77] | > 25000 nM
Cc1nc(COc2ncccn2)sc1-c1cccc(-c2ccc(C(=O)N3CCC(OCC(=O)O)CC3)cc2)n1 [Example 84] | > 25000 nM
Cc1nc(COc2ncccn2)sc1-c1cccc(-c2cnc(C(=O)O)nc2)n1 [Example 85] | > 25000 nM
Cc1nc(CO)sc1-c1cccc(-c2ccc(C(=O)NCC(=O)N3CCC(C(=O)O)CC3)cc2)n1 [Example 89] | > 25000 nM

SMILES | IC50
Cc1nc(COc2ncccn2)sc1-c1cccc(-c2ccc(C(=O)NCC(=O)N3CCC(C(=O)O)CC3)cc2)n1 [Example 90] | > 25000 nM
Cc1nc(COc2ncccn2)sc1-c1cccc(-c2ccc(C(=O)NCC(=O)N3CCC(C(=O)O)C3)cc2)n1 (stereo not drawn) [Example 91] | > 25000 nM
Cc1nc(CO)sc1-c1cccc(-c2ccc(C(=O)NCC(=O)N3CCC(C(=O)O)C3)cc2)n1 (stereo not drawn) [Example 92] | > 25000 nM
Cc1nc(Cc2ccccc2F)sc1-c1cccc(-c2ccc(C(=O)O)c(O)c2)c1 [Example 104] | 1500 nM
Cc1ccc(C#N)c(OCCc2nc(C)c(-c3cccc(-c4ccc(C(=O)O)c(O)c4)c3)s2)n1 [Example 107] | 1900 nM
Cc1nc(CCc2ccccc2)sc1-c1cccc(-c2ccc(C(=O)O)c(O)c2)c1 [Example 109] | 8100 nM
Cc1ccc(C#N)c(OCCn2cc(-c3cccc(-c4ccc(C(=O)O)c(O)c4)c3)cn2)n1 [Example 110] | 8800 nM
Cc1ccc(C#N)c(OCCn2cc(-c3cccc(-c4ccc(C(=O)O)c(O)c4)c3)cn2)n1 [Example 111] | 15000 nM
Cc1ccc(C#N)c(OCCn2cc(-c3cccc(-c4ccc(C(=O)O)c(O)c4)c3)c(C)n2)n1 [Example 112] | 35000 nM
Cc1nc(C)c(C2CCCN(c3ccc(C(=O)O)c(O)c3)C2)s1 (stereo not drawn) [Example 122] | > 250000 nM
Cc1nc(COCc2ccccn2)sc1-c1csc(-c2cc(O)c(C(=O)O)cc2F)n1 [Example 144] | 200 nM
Cc1nc(CNC(=O)C(C)(C)C)sc1-c1cccc(-c2cc(O)c(C(=O)O)cc2F)n1 [Example 150] | 500 nM
COC(=O)NCc1nc(C)c(-c2cc(-c3ccc(C(=O)O)c(O)c3)sn2)s1 [Example 157] | 800 nM
Cc1nc(CNC(C)c2cccnc2)sc1-c1csc(-c2cc(O)c(C(=O)O)cc2F)n1 (stereo not drawn) [Example 170] | 1200 nM
Cc1nc(CNC(C)C)sc1-c1csc(-c2cc(O)c(C(=O)O)cc2F)n1 [Example 176] | 890 nM
COC(=O)NCc1cc(C)c(-c2csc(-c3cc(O)c(C(=O)O)cc3F)n2)s1 [Example 179] | 600 nM
COC(=O)NCc1ccc(-c2csc(-c3cc(O)c(C(=O)O)cc3F)n2)cn1 [Example 187] | 1700 nM
COC(=O)NCc1nc(C)c(-c2csc(-c3cc(N)c(C(=O)O)cc3F)n2)s1 [Example 195] | 1200 nM
COC(=O)NCc1nc(C)c(-c2csc(-c3cc(NC(=O)OC)c(C(=O)O)cc3F)n2)s1 [Example 196] | 5600 nM
Cc1nc(C)c(-c2nsc(-c3cc(O)c(C(=O)O)cc3F)n2)s1 [Example 205] | 1100 nM
COC(=O)NCc1ccc(-c2csc(-c3cc(O)c(C(=O)O)cc3F)n2)c(C)n1 [Example 206] | 2000 nM
Cc1nc(C)c(-c2nc(-c3cc(O)c(C(=O)O)cc3F)sc2C)s1 [Example 241] | 21000 nM
CC(=O)NCCc1nc(C)c(-c2cccc(-c3ccc(C(=O)O)c(O)c3)c2)s1 [Example 258] | 11000 nM
